Experimental findings from patent publication US20240391931A1 (Bristol-Myers Squibb Company, priority 2021, published 2024) are described below.

Broadly, the EC50 is the concentration that produces a half-maximal response.

Experiment [1] has as its target HER2YVMA (Homo sapiens, UniProt P04626, INS775YVMA). As to the kind of experiment: HER2 signaling (pHER2) in Hek293-HER2YVMA cells. Format: cell-based. Also noted: expressed in transfected cells; host or cells: HEK293 (pool), Ba/F3 (clones), BEAS2B (clones); lentiviral vector pCDH-CMV-MCS-EF1-Neo. The conditions noted are these: 1.5 hr compound, 1% FBS, read-out: HEKYVMA pHER2 EC50. The essentials:
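Lentivirally transduced HER2YVMA lines (HEK293 pool; BEAS2B clone) treated 1.5 h at 37 °C in 1% FBS medium with compound at 0.0005–1.1 μM. Lysates read by MSD immunoassay for pHER2 (Tyr1248) normalized to total HER2, as % DMSO control; EC50 from variable-slope sigmoidal fit.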

The target in experiment [2] is EGFR (Homo sapiens, UniProt P00533). As to the kind of experiment: EGFR signaling (pEGFR Tyr1068/total EGFR MSD) in A431 cells. The class given is cell-based. Also noted: endogenous in cells; host or cells: A431, N87. The conditions noted are these: for EC50: A431 cells, read-out: A431 pEGFR EC50; for Selectivity A431 EC50/HEKYVMA EC50: ratio A431 pEGFR EC50 to HEK YVMA pHER2 EC50; for Selectivity A431 EC50/BT474 EC50: ratio A431 pEGFR EC50 to BT474 pHER2 EC50. An outline of the steps:
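EC50 was fitted with variable Hill slope from MSD pTyr1068/total EGFR ratios, expressed as % DMSO control. A431 cells were starved overnight, then exposed 1.5 h to eight concentrations from 10 to 0.005 μM in 1% FBS before a 10-min 100 ng/mL EGF pulse.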

HER2YVMA, sequence (P04626 with tags, fused parts or gaps INS775YVMA): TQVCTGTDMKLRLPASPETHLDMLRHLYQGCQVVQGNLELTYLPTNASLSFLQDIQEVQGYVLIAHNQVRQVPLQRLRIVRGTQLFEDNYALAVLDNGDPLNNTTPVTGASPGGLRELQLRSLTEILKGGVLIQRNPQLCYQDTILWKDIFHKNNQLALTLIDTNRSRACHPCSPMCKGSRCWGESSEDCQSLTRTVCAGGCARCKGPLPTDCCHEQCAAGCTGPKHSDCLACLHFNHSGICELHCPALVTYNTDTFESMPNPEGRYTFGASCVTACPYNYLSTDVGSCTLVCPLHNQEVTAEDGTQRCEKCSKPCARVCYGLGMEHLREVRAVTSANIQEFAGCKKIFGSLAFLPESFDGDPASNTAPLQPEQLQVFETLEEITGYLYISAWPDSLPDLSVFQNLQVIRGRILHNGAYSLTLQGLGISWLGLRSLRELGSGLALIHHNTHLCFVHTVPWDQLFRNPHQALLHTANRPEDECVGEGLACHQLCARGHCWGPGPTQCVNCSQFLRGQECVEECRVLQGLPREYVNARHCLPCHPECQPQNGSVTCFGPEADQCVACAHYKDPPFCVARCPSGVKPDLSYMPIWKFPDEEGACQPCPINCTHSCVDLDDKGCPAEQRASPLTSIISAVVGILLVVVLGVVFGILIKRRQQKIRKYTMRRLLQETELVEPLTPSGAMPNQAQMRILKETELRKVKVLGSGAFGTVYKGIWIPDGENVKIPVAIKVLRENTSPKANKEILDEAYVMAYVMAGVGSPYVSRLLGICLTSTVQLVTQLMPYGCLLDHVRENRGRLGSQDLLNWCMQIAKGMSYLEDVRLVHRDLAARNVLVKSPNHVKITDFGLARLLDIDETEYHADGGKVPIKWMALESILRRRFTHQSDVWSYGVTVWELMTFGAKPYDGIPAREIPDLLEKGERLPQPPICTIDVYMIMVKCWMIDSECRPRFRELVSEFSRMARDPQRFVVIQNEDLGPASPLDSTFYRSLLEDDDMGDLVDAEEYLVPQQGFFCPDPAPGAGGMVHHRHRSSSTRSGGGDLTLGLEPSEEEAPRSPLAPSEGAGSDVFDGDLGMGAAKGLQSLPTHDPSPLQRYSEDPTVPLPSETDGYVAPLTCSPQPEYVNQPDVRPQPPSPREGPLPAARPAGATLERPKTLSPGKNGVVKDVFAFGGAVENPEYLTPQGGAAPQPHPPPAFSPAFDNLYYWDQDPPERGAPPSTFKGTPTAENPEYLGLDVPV
EGFR, sequence (P00533 25-1210): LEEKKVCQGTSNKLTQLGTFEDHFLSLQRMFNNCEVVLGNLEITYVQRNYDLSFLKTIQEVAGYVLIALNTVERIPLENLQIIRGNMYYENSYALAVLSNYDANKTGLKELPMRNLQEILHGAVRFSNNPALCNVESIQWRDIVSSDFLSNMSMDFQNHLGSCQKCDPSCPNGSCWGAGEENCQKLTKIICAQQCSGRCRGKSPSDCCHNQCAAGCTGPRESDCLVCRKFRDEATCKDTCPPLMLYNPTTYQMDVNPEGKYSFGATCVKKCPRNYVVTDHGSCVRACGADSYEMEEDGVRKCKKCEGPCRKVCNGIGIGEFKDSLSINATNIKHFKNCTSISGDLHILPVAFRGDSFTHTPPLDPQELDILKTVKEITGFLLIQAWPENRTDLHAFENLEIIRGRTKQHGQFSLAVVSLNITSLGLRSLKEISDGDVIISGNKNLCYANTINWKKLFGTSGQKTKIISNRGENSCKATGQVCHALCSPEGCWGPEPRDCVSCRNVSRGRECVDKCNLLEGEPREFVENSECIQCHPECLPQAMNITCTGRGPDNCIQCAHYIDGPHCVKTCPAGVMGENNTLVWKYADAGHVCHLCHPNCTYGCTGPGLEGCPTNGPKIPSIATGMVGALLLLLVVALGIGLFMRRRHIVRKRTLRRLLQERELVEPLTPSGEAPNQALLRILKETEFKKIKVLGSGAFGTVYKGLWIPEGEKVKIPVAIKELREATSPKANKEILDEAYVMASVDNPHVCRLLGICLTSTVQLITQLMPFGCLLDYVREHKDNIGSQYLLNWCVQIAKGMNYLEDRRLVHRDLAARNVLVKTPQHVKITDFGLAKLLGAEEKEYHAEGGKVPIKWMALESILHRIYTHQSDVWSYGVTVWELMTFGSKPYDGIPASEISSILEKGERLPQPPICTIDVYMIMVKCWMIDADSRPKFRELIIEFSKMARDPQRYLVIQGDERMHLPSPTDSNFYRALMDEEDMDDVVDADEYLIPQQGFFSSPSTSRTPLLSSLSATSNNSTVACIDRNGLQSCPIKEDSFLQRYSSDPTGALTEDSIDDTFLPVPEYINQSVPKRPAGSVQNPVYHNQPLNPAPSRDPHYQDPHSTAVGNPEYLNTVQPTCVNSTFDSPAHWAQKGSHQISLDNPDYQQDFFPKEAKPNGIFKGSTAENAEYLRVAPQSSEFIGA

With `CN(C)C/C=C/C(=O)N1CCc2c(sc3ncnc(Nc4ccc(Oc5ccc6ncnn6c5)c(Cl)c4)c23)C1` [Compound 5, (E)-1-(4-((4-([1,2,4]triazolo[1,5-a]pyridin-6-yloxy)-3-chlorophenyl)amino)-5,8-dihydropyrido[4′,3′:4,5]thieno[2,3-d]pyrimidin-7(6H)-yl)-4-(dimethylamino)but-2-en-1-one], the EC50 in experiment [1] is less than 100 nM. In experiment [2], the EC50 lay in the range of 100 to 1000 nM; the “Selectivity A431 EC50/HEKYVMA EC50” value was “B (B: ≥ 20 and < 100)”.
On to `Cc1ccc(Oc2ccc(Nc3ncnc4sc5c(c34)CCN(C(=O)/C=C/CN(C)C(C)(C)C)C5)cc2C)cn1` [Compound 33], for which the EC50 in experiment [1] is less than 100 nM. Besides, in experiment [2], the EC50 lay within 100 to 1000 nM; the “Selectivity A431 EC50/BT474 EC50” value was “B (B: ≥ 20 and < 100)”; the “Selectivity A431 EC50/HEKYVMA EC50” value is “C (C: ≥ 10 and < 20)”.
For `Cc1cc(Nc2ncnc3sc4c(c23)CCN(C(=O)/C=C/CN2CC(C)OC(C)C2C)C4)ccc1Oc1ccc2ncnn2c1` (stereo not shown) [Compound 83], in experiment [1], the EC50 is less than 100 nM. Besides, in experiment [2], the EC50 is 1000 to 10000 nM; the “Selectivity A431 EC50/BT474 EC50” value was “A (A: ≥100)”; the “Selectivity A431 EC50/HEKYVMA EC50” value was “B (B: ≥ 20 and < 100)”.
Regarding `Cc1ccc(Oc2ccc(Nc3ncnc4sc5c(c34)CCN(C(=O)/C=C/CN3CC=CCC3)C5)cc2C)cn1` [Compound 55], the EC50 in experiment [1] was less than 100 nM. Further, in experiment [2], the EC50 lay within 100 to 1000 nM; the “Selectivity A431 EC50/BT474 EC50” value was “B (B: ≥ 20 and < 100)”; the “Selectivity A431 EC50/HEKYVMA EC50” value was “B (B: ≥ 20 and < 100)”.
As to `Cc1ccc(Oc2ccc(Nc3ncnc4sc5c(c34)CCN(C(=O)/C=C/CNCc3ccsc3)C5)cc2C)cn1` [Compound 52], the EC50 in experiment [1] was less than 100 nM. Moreover, in experiment [2], the EC50 was less than 100 nM; the “Selectivity A431 EC50/BT474 EC50” value is “D (D: ≥ 5 and < 10)”; the “Selectivity A431 EC50/HEKYVMA EC50” value is “C (C: ≥ 10 and < 20)”.
For the compound `Cc1cc(Nc2ncnc3sc4c(c23)CN(C(=O)/C=C/CN(C)C)CC4)ccc1Oc1ccc2ncnn2c1` [Compound 103, (E)-1-(4-((4-([1,2,4]triazolo[1,5-a]pyridin-6-yloxy)-3-methylphenyl)amino)-7,8-dihydropyrido[3′,4′:4,5]thieno[2,3-d]pyrimidin-6(5H)-yl)-4-(dimethylamino)but-2-en-1-one], the EC50 in experiment [1] was less than 100 nM. Further, in experiment [2], the EC50 is 100 to 1000 nM; the “Selectivity A431 EC50/BT474 EC50” value is “B (B: ≥ 20 and < 100)”; the “Selectivity A431 EC50/HEKYVMA EC50” value is “B (B: ≥ 20 and < 100)”.
On to `Cc1ccc(Oc2ccc(Nc3ncnc4sc5c(c34)CN(C(=O)/C=C/CN(C)C)C5)cc2C)cn1` [Compound 99, (E)-4-(dimethylamino)-1-(4-((3-methyl-4-((6-methylpyridin-3-yl)oxy)phenyl)amino)-5,7-dihydro-6H-pyrrolo[3′,4′:4,5]thieno[2,3-d]pyrimidin-6-yl)but-2-en-1-one], for which the EC50 in experiment [1] is less than 100 nM. Also, in experiment [2], the EC50 lay within 100 to 1000 nM; the “Selectivity A431 EC50/BT474 EC50” value was “B (B: ≥ 20 and < 100)”; the “Selectivity A431 EC50/HEKYVMA EC50” value was “B (B: ≥ 20 and < 100)”.
In the case of `COCCN1CCN(C/C=C/C(=O)N2CCc3c(sc4ncnc(Nc5ccc(Oc6ccc(C)nc6)c(C)c5)c34)C2)CC1` [Compound 59], the EC50 in experiment [1] is less than 100 nM. In experiment [2], the EC50 lay in the range of 100 to 1000 nM; the “Selectivity A431 EC50/BT474 EC50” value was “B (B: ≥ 20 and < 100)”; the “Selectivity A431 EC50/HEKYVMA EC50” value is “C (C: ≥ 10 and < 20)”.
With `Cc1ccc(Oc2ccc(Nc3ncnc4sc5c(c34)CCN(C(=O)/C=C/CN[C@H]3CC[C@H](OC(F)F)CC3)C5)cc2C)cn1` [Compound 69], the EC50 in experiment [1] was less than 100 nM. Also, in experiment [2], the EC50 is less than 100 nM; the “Selectivity A431 EC50/BT474 EC50” value is reported as “A (A: ≥100)”; the “Selectivity A431 EC50/HEKYVMA EC50” value was “D (D: ≥ 5 and < 10)”.
For the compound `Cc1ccc(Oc2ccc(Nc3ncnc4sc5c(c34)C(C)CN(C(=O)C=CCN(C)C)C5)cc2C)cn1` (single isomer, unassigned) [Compound 106], the EC50 in experiment [1] is less than 100 nM. In experiment [2], the EC50 lay within 100 to 1000 nM; the “Selectivity A431 EC50/BT474 EC50” value is “B (B: ≥ 20 and < 100)”; the “Selectivity A431 EC50/HEKYVMA EC50” value was “C (C: ≥ 10 and < 20)”.
Regarding `CCN1CCN(C/C=C/C(=O)N2CCc3c(sc4ncnc(Nc5ccc(Oc6ccc(C)nc6)c(C)c5)c34)C2)CC1` [Compound 46], the EC50 in experiment [1] was less than 100 nM. Besides, in experiment [2], the EC50 fell in the range of 1000 to 10000 nM; the “Selectivity A431 EC50/BT474 EC50” value is “B (B: ≥ 20 and < 100)”; the “Selectivity A431 EC50/HEKYVMA EC50” value was “C (C: ≥ 10 and < 20)”.
Turning to `Cc1ccc(Oc2ccc(Nc3ncnc4sc5c(c34)CCN(C(=O)/C=C/CN[C@H]3CC[C@H](OC4CC4)CC3)C5)cc2C)cn1` [Compound 68], the EC50 in experiment [1] was less than 100 nM. Besides, in experiment [2], the EC50 is less than 100 nM; the “Selectivity A431 EC50/BT474 EC50” value was “D (D: ≥ 5 and < 10)”; the “Selectivity A431 EC50/HEKYVMA EC50” value is “E (E: >1 and < 5)”.
On to `CON(C)C/C=C/C(=O)N1CCc2c(sc3ncnc(Nc4ccc(Oc5ccc(C)nc5)c(C)c4)c23)C1` [Compound 56], for which the half-maximal effective concentration (EC50) in experiment [1] lay within 350 to 1000 nM. In addition, in experiment [2], the EC50 was in the range of 1000 to 10000 nM; the “Selectivity A431 EC50/BT474 EC50” value is “C (C: ≥ 10 and < 20)”; the “Selectivity A431 EC50/HEKYVMA EC50” value was “B (B: ≥ 20 and < 100)”.
Regarding `Cc1ccc(Oc2ccc(Nc3ncnc4sc5c(c34)CCN(C(=O)/C=C/CNC3CCC3)C5)cc2C)cn1` [Compound 54], in experiment [1], the EC50 was less than 100 nM. In experiment [2], the EC50 lay within 100 to 1000 nM; the “Selectivity A431 EC50/BT474 EC50” value is “D (D: ≥ 5 and < 10)”; the “Selectivity A431 EC50/HEKYVMA EC50” value is “D (D: ≥ 5 and < 10)”.
As to `Cc1ccc(Oc2ccc(Nc3ncnc4sc5c(c34)CCN(C(=O)/C=C/CN3C[C@H]4CC[C@@H](C3)O4)C5)cc2C)cn1` [Compound 66], the EC50 in experiment [1] is less than 100 nM. Further, in experiment [2], the EC50 lay in the range of 100 to 1000 nM; the “Selectivity A431 EC50/BT474 EC50” value is “C (C: ≥ 10 and < 20)”; the “Selectivity A431 EC50/HEKYVMA EC50” value was “C (C: ≥ 10 and < 20)”.
For the compound `Cc1ccc(Oc2ccc(Nc3ncnc4sc5c(c34)CCN(C(=O)/C=C/CNC3CCOC3)C5)cc2C)cn1` (stereo not shown) [Compound 47], the EC50 in experiment [1] was less than 100 nM. Moreover, in experiment [2], the EC50 lay in the range of 100 to 1000 nM; the “Selectivity A431 EC50/BT474 EC50” value was “C (C: ≥ 10 and < 20)”; the “Selectivity A431 EC50/HEKYVMA EC50” value was “C (C: ≥ 10 and < 20)”.
As to `Cc1ccc(Oc2ccc(Nc3ncnc4sc5c(c34)CCN(C(=O)/C=C/CN3CCN4C(=O)CCC4C3)C5)cc2C)cn1` (stereo not shown) [Compound 58], the EC50 in experiment [1] fell in the range of 350 to 1000 nM. In experiment [2], the EC50 was in the range of 1000 to 10000 nM; the “Selectivity A431 EC50/BT474 EC50” value is “C (C: ≥ 10 and < 20)”; the “Selectivity A431 EC50/HEKYVMA EC50” value was “D (D: ≥ 5 and < 10)”.
On to `Cc1ccc(Oc2ccc(Nc3ncnc4sc5c(c34)CCN(C(=O)/C=C/CN3CC4CC4C3)C5)cc2C)cn1` (stereo not shown) [Compound 76], for which, in experiment [1], the EC50 was less than 100 nM. In experiment [2], the EC50 is less than 100 nM; the “Selectivity A431 EC50/BT474 EC50” value was “C (C: ≥ 10 and < 20)”; the “Selectivity A431 EC50/HEKYVMA EC50” value was “C (C: ≥ 10 and < 20)”.
With `O=C(/C=C/CN1CC2C(CO)C2C1)N1CCc2c(sc3ncnc(Nc4ccc(Oc5ccc6ncnn6c5)c(Cl)c4)c23)C1` (stereo not shown) [Compound 92], in experiment [1], the EC50 is less than 100 nM. In experiment [2], the EC50 was less than 100 nM; the “Selectivity A431 EC50/BT474 EC50” value was “C (C: ≥ 10 and < 20)”; the “Selectivity A431 EC50/HEKYVMA EC50” value is “C (C: ≥ 10 and < 20)”.
Turning to `Cc1cc(Nc2ncnc3sc4c(c23)CCN(C(=O)/C=C/CN(C)C)C4)ccc1Oc1cccc(B(O)O)c1` [Compound 64, (E)-(3-(4-((7-(4-(dimethylamino)but-2-enoyl)-5,6,7,8-tetrahydropyrido[4′,3′:4,5]thieno[2,3-d]pyrimidin-4-yl)amino)-2-methylphenoxy)phenyl)boronic acid], the EC50 in experiment [1] is less than 100 nM. In addition, in experiment [2], the EC50 was in the range of 100 to 1000 nM; the “Selectivity A431 EC50/BT474 EC50” value was “C (C: ≥ 10 and < 20)”; the “Selectivity A431 EC50/HEKYVMA EC50” value is “E (E: >1 and < 5)”.
Take `Cc1ccc(Oc2ccc(Nc3ncnc4sc5c(c34)CCCN(C(=O)/C=C/CN(C)C)C5)cc2C)cn1` [Compound 101, (E)-4-(Dimethylamino)-1-(4-((3-methyl-4-((6-methylpyridin-3-yl)oxy)phenyl)amino)-6,7-dihydro-5H-pyrimido[5′,4′:4,5]thieno[2,3-c]azepin-8(9H)-yl)but-2-en-1-one]: the EC50 in experiment [1] was less than 100 nM. Besides, in experiment [2], the EC50 fell in the range of 100 to 1000 nM; the “Selectivity A431 EC50/BT474 EC50” value was “C (C: ≥ 10 and < 20)”; the “Selectivity A431 EC50/HEKYVMA EC50” value is “C (C: ≥ 10 and < 20)”.
With `Cc1ccc(Oc2ccc(Nc3ncnc4sc5c(c34)CCN(C(=O)/C=C/CN3CC(O)C3)C5)cc2C)cn1` [Compound 53], the EC50 in experiment [1] was 100 to 350 nM. Moreover, in experiment [2], the EC50 was 1000 to 10000 nM; the “Selectivity A431 EC50/BT474 EC50” value was “C (C: ≥ 10 and < 20)”; the “Selectivity A431 EC50/HEKYVMA EC50” value was “D (D: ≥ 5 and < 10)”.
As for `C=C(CN1CCc2c(sc3ncnc(Nc4ccc(Oc5ccc(C)nc5)c(C)c4)c23)C1)C(=O)OCC` [Compound 86, Ethyl 2-((4-((3-methyl-4-((6-methylpyridin-3-yl)oxy)phenyl)amino)-5,8-dihydropyrido[4′,3′:4,5]thieno[2,3-d]pyrimidin-7(6H)-yl)methyl)acrylate], in experiment [1], the EC50 was less than 100 nM. In addition, in experiment [2], the EC50 is greater than 10000 nM; the “Selectivity A431 EC50/BT474 EC50” value is “B (B: ≥ 20 and < 100)”; the “Selectivity A431 EC50/HEKYVMA EC50” value is recorded as “A (A: ≥100)”.
